Test results taken from ChEMBL document CHEMBL5543174, “A Nonbactericidal Anionic Antimicrobial Peptide Provides Prophylactic and Therapeutic Efficacies against Bacterial Infections in Mice by Immunomodulatory-Antithrombotic Duality” (J Med Chem, 2024).
Calls of active or inactive are those of the source. No cut-off for these calls is given here.

Legend:
[1] = system: Lymphocyte; experiment: Immunomodulatory activity in mouse mesenteric lymph node derived lymphocyte assessed as increase in lymphocyte proliferation at < 200 ug/ml incubated for 24 hrs by CCK-8 assay; assay type: functional, cell-based; conditions: dose < 200.0 µg/ml
[2] = system: Alcaligenes faecalis; experiment: Antimicrobial activity against Alcaligenes faecalis ATCC 8750 assessed as inhibition of microbial growth at <= 200 ug/ml incubated for 18 hrs by micro-broth dilution method; assay type: functional, organism-based; conditions: dose <= 200.0 µg/ml
[3] = system: Pseudomonas aeruginosa; experiment: Antimicrobial activity against Pseudomonas aeruginosa ATCC 27853 assessed as inhibition of microbial growth at <= 200 ug/ml incubated for 18 hrs by micro-broth dilution method; assay type: functional, organism-based; conditions: dose <= 200.0 µg/ml
[4] = system: Staphylococcus haemolyticus; experiment: Antimicrobial activity against Staphylococcus haemolyticus ATCC 29970 assessed as inhibition of microbial growth at <= 200 ug/ml incubated for 18 hrs by micro-broth dilution method; assay type: functional, organism-based; conditions: dose <= 200.0 µg/ml
[5] = system: Candida albicans; experiment: Antimicrobial activity against Candida albicans ATCC 2002 assessed as reduction in microbial colony forming unit at 200 ug/ml incubated for 1 to 4 hrs by time-kill kinetics based analysis; assay type: functional, organism-based; conditions: dose 200.0 µg/ml, time 1-4 hrs
[6] = system: Escherichia coli; experiment: Antimicrobial activity against Carbapenem-resistant Escherichia coli assessed as reduction in metabolic activity at < 200 ug/ml incubated for 1 to 4 hrs by CCK-8 assay; assay type: functional, organism-based; conditions: dose < 200.0 µg/ml, time 1-4 hrs
[7] = system: Staphylococcus aureus; experiment: Antibacterial activity against Staphylococcus aureus ATCC 25923 infected in C57BL/6 mouse assessed as reduction in bacterial load at 10 mg/kg,ip administrated 5 hrs after bacterial infection; assay type: functional, organism-based
[8] = system: Staphylococcus aureus; experiment: Antibacterial activity against Staphylococcus aureus ATCC 25923 infected in C57BL/6 mouse assessed as reduction in TNF-alpha level in peritoneal fluid at 10 mg/kg,ip pre-administrated 5 hrs before bacterial infection measured after 24 hrs by ELISA; assay type: functional, organism-based; conditions: time 29.0 hrs
[9] = system: Staphylococcus aureus; experiment: Antibacterial activity against Staphylococcus aureus ATCC 25923 infected in C57BL/6 mouse assessed as reduction in IL-6 level in peritoneal fluid at 10 mg/kg,ip administrated 5 hrs after bacterial infection measured after 24 hrs by ELISA; assay type: functional, organism-based; conditions: time 19.0 hrs
[10] = system: Staphylococcus aureus; experiment: Antibacterial activity against Staphylococcus aureus ATCC 25923 infected in C57BL/6 mouse assessed as reduction in IL-1beta level in peritoneal fluid at 10 mg/kg,ip administrated 5 hrs after bacterial infection measured after 24 hrs by ELISA; assay type: functional, organism-based; conditions: time 19.0 hrs
[11] = system: Escherichia coli; experiment: Antibacterial activity against Escherichia coli ATCC 25922 infected in C57BL/6 mouse assessed as reduction in TNF-alpha level in peritoneal fluid at 10 mg/kg,ip pre-administrated 5 hrs before bacterial infection measured after 24 hrs by ELISA; assay type: functional, organism-based; conditions: time 29.0 hrs
[12] = system: Escherichia coli; experiment: Antibacterial activity against Escherichia coli ATCC 25922 infected in C57BL/6 mouse assessed as reduction in IL-1beta level in peritoneal fluid at 10 mg/kg,ip pre-administrated 5 hrs before bacterial infection measured after 24 hrs by ELISA; assay type: functional, organism-based; conditions: time 29.0 hrs
[13] = system: Escherichia coli; experiment: Antibacterial activity against Escherichia coli ATCC 25922 infected in C57BL/6 mouse assessed as reduction in IL-6 level in peritoneal fluid at 10 mg/kg,ip administrated 5 hrs after bacterial infection measured after 24 hrs by ELISA; assay type: functional, organism-based; conditions: time 19.0 hrs
[14] = system: Escherichia coli; experiment: Antibacterial activity against Escherichia coli ATCC 25922 infected in C57BL/6 mouse assessed as reduction in IL-1beta level in peritoneal fluid at 10 mg/kg,ip administrated 5 hrs after bacterial infection measured after 24 hrs by ELISA; assay type: functional, organism-based; conditions: time 19.0 hrs
[15] = system: Staphylococcus aureus; experiment: Antibacterial activity against Methicillin-resistant Staphylococcus aureus infected in C57BL/6 mouse assessed as reduction in IL-6 level in peritoneal fluid at 10 mg/kg,ip pre-administrated 5 hrs before bacterial infection measured after 24 hrs by ELISA; assay type: functional, organism-based; conditions: time 29.0 hrs
[16] = system: Escherichia coli; experiment: Antibacterial activity against Carbapenem-resistant Escherichia coli infected in C57BL/6 mouse assessed as reduction in IL-1beta level in peritoneal fluid at 10 mg/kg,ip pre-administrated 5 hrs before bacterial infection measured after 24 hrs by ELISA; assay type: functional, organism-based; conditions: time 29.0 hrs
[17] = system: Escherichia coli; experiment: Antibacterial activity against Carbapenem-resistant Escherichia coli infected in C57BL/6 mouse assessed as reduction in TNF-alpha level in peritoneal fluid at 10 mg/kg,ip administrated 5 hrs after bacterial infection measured after 24 hrs by ELISA; assay type: functional, organism-based; conditions: time 19.0 hrs
[18] = system: Mus musculus; experiment: Immunomodulatory activity in cyclophosphamide immunosuppressed C57BL/6 mouse with neutrophil depletion model assessed as change in T-lymphocytes in peritoneal lavage at 10 mg/kg,ip administration measured after 5 to 24 hrs by flow cytometry; assay type: functional, organism-based; conditions: time 5-24 hrs
[19] = system: Peritoneal macrophage cell; experiment: Induction of chemotaxis in mouse Peritoneal macrophage assessed as upregulation of IL-1beta expression at 25 to 100 ug/ml incubated for 6 hrs by ELISA; assay type: functional, cell-based; conditions: dose 25-100 µg/ml
[20] = system: Peritoneal macrophage; experiment: Immunomodulatory activity in mouse Peritoneal macrophage assessed as decrease in LPS-induced IL-6 production at 25 to 100 ug/ml incubated for 6 hrs by ELISA; assay type: functional, cell-based; conditions: dose 25-100 µg/ml
[21] = system: Peritoneal macrophage; experiment: Immunomodulatory activity in mouse Peritoneal macrophage assessed as decrease in LTA-induced IL-6 production at 25 to 100 ug/ml incubated for 6 hrs by ELISA; assay type: functional, cell-based; conditions: dose 25-100 µg/ml
[22] = system: Peritoneal macrophage cell; experiment: Induction of ROS production in mouse Peritoneal macrophage incubated for 6 hrs by DCFA-DA staining based flow cytometry; assay type: functional, cell-based
[23] = system: Peritoneal macrophage cell; experiment: Induction of chemotaxis in mouse Peritoneal macrophage assessed as upregulation of CXCL1 production at 100 ug/ml preincubated with MTS510 followed by compound addition by ELISA; assay type: functional, cell-based; conditions: dose 100.0 µg/ml
[24] = system: Peritoneal macrophage; experiment: Induction of chemotaxis in mouse Peritoneal macrophage assessed as upregulation of CXCL2 production at 100 ug/ml preincubated with MTS510 followed by compound addition by ELISA; assay type: functional, cell-based; conditions: dose 100.0 µg/ml
[25] = system: Peritoneal macrophage; experiment: Immunoregulatory activity in mouse Peritoneal macrophage assessed as upregulation of ERK phosphorylation incubated for 1 hr by Western blotting analysis; assay type: functional, cell-based
[26] = system: Peritoneal macrophage; experiment: Immunoregulatory activity in mouse Peritoneal macrophage assessed as change in total p65 expression at 25 to 100 ug/ml incubated for 1 hr by Western blotting analysis; assay type: functional, cell-based; conditions: dose 25-100 µg/ml
[27] = system: Mus musculus; experiment: Inhibition of fibrin formation in mouse infected with Methicillin-resistant Staphylococcus aureus assessed as reduction in fibrin deposition in lung at 10 mg/kg,ip pre-administrated 5 hrs before bacterial infection measured after 24 hrs by immunohistochemical analysis; assay type: functional, organism-based; conditions: time 29.0 hrs
[28] = system: Mus musculus; experiment: Antithrombotic activity in C57BL/6 mouse tail transection model assessed as increase in tail bleeding time at 30 mg/kg,SC administration; assay type: functional, organism-based
[29] = system: Mus musculus; experiment: Anticoagulation activity in mouse infected with Methicillin-resistant Staphylococcus aureus assessed as increase in plasma TFPI expression at 10 mg/kg,ip administrated 5 hrs after bacterial infection measured after 24 hrs by ELISA; assay type: functional, organism-based; conditions: time 19.0 hrs
[30] = system: Escherichia coli; experiment: Antibacterial activity against Carbapenem-resistant Escherichia coli infected in C57BL/6 mouse with clodronate liposome-induced monocyte depletion model assessed as decrease in bacterial burden in peritoneal cavity at 10 mg/kg,ip administrated 5 hrs after bacterial infection measured after 24 hrs; assay type: functional, organism-based; conditions: time 19.0 hrs

SMILES: CC[C@H](C)[C@H](NC(=O)[C@@H]1CSSC[C@H](NC(=O)[C@H](CCC(=O)O)NC(=O)[C@@H](NC(=O)[C@H](CCCCN)NC(=O)[C@H](Cc2c[nH]cn2)NC(=O)[C@@H](NC(=O)[C@H](CCCCN)NC(=O)[C@H](CCC(=O)O)NC(=O)[C@H](C)NC(=O)[C@H](CCC(=O)O)NC(=O)[C@H](CCC(=O)O)NC(=O)[C@H](CCC(=O)O)NC(=O)[C@H](C)N)[C@@H](C)O)[C@@H](C)O)C(=O)N[C@@H](CC(C)C)C(=O)N[C@@H](CCC(=O)O)C(=O)N1)C(=O)N[C@@H](Cc1ccccc1)C(=O)N[C@H](C(=O)N[C@@H](CC(C)C)C(=O)N[C@@H](CC(C)C)C(=O)N1CCC[C@H]1C(=O)N1CCC[C@@H]1C(=O)N[C@H](C)C(=O)O)[C@@H](C)O
- Activity [1]: inactive
- Activity [2]: inactive
- Activity [3]: inactive
- Activity [4]: inactive
- Activity [5]: inactive
- Activity [6]: inactive
- Activity [7]: Active
- Activity [8]: Active
- Activity [9]: Active
- Activity [10]: Active
- Activity [11]: Active
- Activity [12]: Active
- Activity [13]: Active
- Activity [14]: Active
- Activity [15]: Active
- Activity [16]: Active
- Activity [17]: Active
- Activity [18]: inactive
- Activity [19]: inactive
- Activity [20]: inactive
- Activity [21]: inactive
- Activity [22]: Dose-Dependent Effect
- Activity [23]: Active
- Activity [24]: Active
- Activity [25]: Dose-Dependent Effect
- Activity [26]: inactive
- inhibition [27]: Active
- Activity [28]: inactive
- Activity [29]: Active
- Activity [30]: inactive
